Experiments:
Assay in all cases: Cell proliferation inhibition experiment, CellTiter-Glo (CTG) method
Assay type in all cases: cell-based
[1] = system: PC-9; conditions: PC-9 cells, 3 days
Method in brief: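 Cells in log-phase growth (viability above 90% by trypan blue) were seeded at 90 μL per well in black-walled, clear-bottom 96-well plates and incubated overnight at 37° C., 5% CO2. A T0 plate was read the next day. Test compounds were added at nine concentrations in triplicate with a solvent control. Viability was measured by CellTiter-Glo luminescence on EnVision, and IC50 came from non-linear S-curve fitting in GraphPad Prism 5.0.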

[2] = system: NCI-H1975; conditions: for IC50: Homo sapiens, NCI-H1975, 72 h, NCI-H1975 cells, CTG, 3 days; for A-431/NCI-H1975 Selectivity: ratio of A-431 IC50 to NCI-H1975 IC50
Method in brief: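 NCI-H1975 cells with viability above 90% by trypan blue were seeded at 90 μL per well in black 96-well plates and incubated overnight at 37° C., 5% CO2. Compounds were added at nine concentrations in triplicate, and viability was measured with CellTiter-Glo luminescence on EnVision. IC50 came from non-linear S-curve fitting in GraphPad Prism 5.0.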

[3] = system: A-431; conditions: A-431 cells, 3 days
Method in brief: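 Cells seeded overnight at 37 °C, 5% CO2, then treated with nine 3-fold dilutions in triplicate, top 30 μM for A-431 and 1.111 μM for NCI-H1975 and PC-9; solvent control. After 3 days, viability read by CellTiter-Glo luminescence; IC50 from non-linear sigmoidal fit of survival rate.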

| IC50 ([1]; Homo sapiens, PC-9, 72 h) [µM] | IC50 [2] [µM] | IC50 ([3]; Homo sapiens, A-431, 72 h) [µM] | IC50 [1] [µM] | IC50 [3] [µM] | SMILES | A-431/NCI-H1975 Selectivity [2] |
| --- | --- | --- | --- | --- | --- | --- |
| 0.0641 | 0.085 | 2.01 | – | – | C=CC(=O)Nc1cc(Nc2cc(-c3ccc4ncsc4c3)ncn2)c(OC)cc1N(C)CCN1C[C@@H](C)N(C)[C@@H](C)C1 [compound 126] | 23.7 |
| 0.0327 | 0.0392 | 2.08 | – | – | C=CC(=O)Nc1cc(Nc2cc(-c3ccc4cnn(C)c4c3)ncn2)c(OC(F)F)cc1N1C[C@@H](C)C(N)[C@@H](C)C1 (some centres unmarked) [compound 160] | 53.0 |
| 0.0346 | 0.0258 | 0.686 | – | – | C=CC(=O)Nc1cc(Nc2cc(-c3ccc4cnn(C)c4c3)ncn2)c(OC)cc1N1CC(C)N(C)C(C)C1 (centres unmarked) [compound 42] | – |
| 0.0497 | 0.0672 | 1.39 | – | – | C=CC(=O)Nc1cc(Nc2cc(-c3ccc4cnn(C)c4c3)ncn2)c(OC)cc1N1CCN(CC)[C@@H](C)C1 [compound 48] | 20.7 |
| 0.0214 | 0.0257 | 2.9 | – | – | C=CC(=O)Nc1cc(Nc2nccc(-c3ccc4c(cnn4C)c3)n2)c(OC)cc1N(C)CCO [compound 279] | 112.8 |
| 0.0072 | 0.0061 | 0.987 | – | – | C=CC(=O)Nc1cc(Nc2cc(-c3ccc4c(cnn4C)c3)ncn2)c(OC)cc1N(C)CCN(C)CC [compound 88] | 161.8 |
| 0.012 | 0.0247 | 1.62 | – | – | C=CC(=O)Nc1cc(Nc2cc(-c3ccc4cnn(C)c4c3)ncn2)c(OC)cc1N1CCC(C2CCOCC2)CC1 [compound 209] | 65.7 |
| 0.0089 | 0.016 | 0.986 | – | – | C=CC(=O)Nc1cc(Nc2cc(-c3ccc4cnn(C)c4c3)ncn2)c(OC)cc1N1CCC(N(CC)CC)CC1 [compound 166] | – |
| 0.0122 | 0.0067 | 0.997 | – | – | C=CC(=O)Nc1cc(Nc2cc(-c3ccc4c(cnn4C)c3)ncn2)c(OC(F)F)cc1N(C)CCN(CC)CC [compound 95] | 148.9 |
| 0.0546 | 0.0444 | 2.4 | – | – | C=CC(=O)Nc1cc(Nc2cc(-c3ccc4c(cnn4C)c3)ncn2)c(OC)cc1N1CCC(CCO)CC1 [compound 270] | 54.1 |
| 0.0777 | 0.0252 | 2.39 | – | – | C=CC(=O)Nc1cc(Nc2cc(-c3ccc4c(cnn4C)c3)ncn2)c(OCC)cc1N(C)CCNC(C)C [compound 271] | 94.9 |
| 0.0456 | 0.0527 | 1.58 | – | – | C=CC(=O)Nc1cc(Nc2cc(-c3ccc4c(cnn4C)c3)ncn2)c(OC)cc1N1CCN(C)[C@H](C)C1 [compound 31] | 29.9 |
| 0.0178 | 0.0231 | 1.25 | – | – | C=CC(=O)Nc1cc(Nc2cc(-c3ccc4c(cnn4C)c3)ncn2)c(OCC)cc1N(C)CCN1CCN(C)CC1 [compound 119] | 54.0 |
| 0.035 | 0.0323 | 1.43 | – | – | C=CC(=O)Nc1cc(Nc2nccc(-c3ccc4c(cnn4C)c3)n2)c(OC)cc1N(C)C1CCN(C)C1 (centres unmarked) [compound 109] | 44.4 |
| 0.0311 | 0.0338 | 1.43 | – | – | C=CC(=O)Nc1cc(Nc2cc(-c3ccc4c(cnn4C)c3)ncn2)c(OC)cc1N1CCN(C2CCN(C(C)=O)CC2)CC1 [compound 134] | 42.4 |
| 0.03 | 0.0464 | 2.01 | – | – | C=CC(=O)Nc1cc(Nc2nccc(-c3ccc4nc(C)sc4c3)n2)c(OC)cc1N(C)CCN(C)C [compound 255] | 43.4 |
| 0.0309 | 0.0401 | 0.804 | – | – | C=CC(=O)Nc1cc(Nc2cc(-c3ccc4c(cnn4C)c3)ncn2)c(OC)cc1C(=O)N(C)CCN(C)C [compound 286] | 20.0 |
| 0.0089 | 0.0111 | 0.983 | – | – | C=CC(=O)Nc1cc(Nc2cc(-c3ccc4c(cnn4C)c3)ncn2)c(OC)cc1N1CCN(CC)CC1 [compound 18] | 88.8 |
| 0.0679 | 0.072 | 3.33 | – | – | C=CC(=O)Nc1cc(Nc2nccc(-c3ccc4c(cnn4C)c3)n2)c(OC)cc1N(C)CCNC(C)C [compound 281] | 46.2 |

| IC50 ([1]; Homo sapiens, PC-9, 72 h) [µM] | IC50 [2] [µM] | IC50 ([3]; Homo sapiens, A-431, 72 h) [µM] | IC50 [1] [µM] | IC50 [3] [µM] | SMILES | A-431/NCI-H1975 Selectivity [2] |
| --- | --- | --- | --- | --- | --- | --- |
| 0.0362 | 0.0526 | 0.767 | – | – | C=CC(=O)Nc1cc(Nc2cc(-c3ccc4ncsc4c3)ncn2)c(OC)cc1N1CCN(C)CC1 [compound 9] | 14.6 |
| 0.0767 | 0.0982 | 1.92 | – | – | C=CC(=O)Nc1cc(Nc2cc(-c3ccc4c(cnn4C)c3)ncn2)c(OC)cc1N(C)C(=O)CN(C)C [compound 288] | 19.6 |
| 0.0163 | 0.0216 | 1.57 | – | – | C=CC(=O)Nc1cc(Nc2cc(-c3ccc4c(cnn4C)c3)ncn2)c(OC)cc1N(C)CCO [compound 269] | 72.9 |
| 0.0211 | 0.0245 | 1.34 | – | – | C=CC(=O)Nc1c(N(C)CCN(C)CC)cc(OC)c(Nc2cc(-c3ccc4cnn(C)c4c3)ncn2)c1F [compound 201] | 54.9 |
| 0.0327 | 0.0801 | 2.46 | – | – | C=CC(=O)Nc1cc(Nc2nccc(-c3ccc4c(cnn4C)c3)n2)c(OC)cc1N1CCC(N2CCN(C(C)C)CC2)CC1 [compound 234] | 30.7 |
| 0.0134 | 0.0181 | 1.06 | – | – | C=CC(=O)Nc1cc(Nc2cc(-c3ccc4c(cnn4C)c3)ncn2)c(OC)cc1N1CCN(C)C(C)C1 (centres unmarked) [compound 22] | 58.3 |
| 0.0277 | 0.0473 | 1.99 | – | – | C=CC(=O)Nc1cc(Nc2cc(-c3ccc4c(cnn4C)c3)ncn2)c(OC)cc1N1CC(N(C)C)C1 [compound 10] | 42.0 |
| 0.0351 | 0.025 | 1.32 | – | – | C=CC(=O)Nc1cc(Nc2cc(-c3ccc4c(cnn4C)c3)ncn2)c(OC(F)F)cc1N1CCN(C2CCOCC2)CC1 [compound 153] | 53.0 |
| 0.0311 | 0.0402 | 2.31 | – | – | C=CC(=O)Nc1cc(Nc2cc(-c3ccc4c(cnn4C)c3)ncn2)c(OCC)cc1N(C)CCNC(C)(C)C [compound 121] | 57.6 |
| 0.674 | 0.0284 | 1.37 | – | – | C=CC(=O)Nc1cc(Nc2cc(-c3ccc4c(cnn4C)c3)ncn2)c(OC(F)F)cc1N1CCN(CC2CC2)CC1 [compound 149] | 48.2 |
| 0.0359 | 0.043 | 0.586 | – | – | C=CC(=O)Nc1cc(Nc2cc(-c3ccc4cnn(C)c4c3)ncn2)c(OC)cc1N(C)CCN(CC)CC [compound 80] | 13.6 |
| 0.0221 | 0.0055 | 0.923 | – | – | C=CC(=O)Nc1cc(Nc2cc(-c3ccc4c(cnn4C)c3)ncn2)c(OC)cc1N1C[C@@H](C)N[C@@H](C)C1 [compound 264] | – |
| 0.0579 | 0.0873 | 9.45 | – | – | C=CC(=O)Nc1cc(Nc2cc(-c3ccc4c(cnn4C)c3)ncn2)c(OC)cc1N(C)CCN(C)C(C)=O [compound 76] | 108.3 |
| 0.0317 | 0.0835 | 1.06 | – | – | C=CC(=O)Nc1cc(Nc2cc(-c3ccc4c(cnn4CC)c3)ncn2)c(OC(F)F)cc1N1C[C@@H](C)N(C)[C@@H](C)C1 [compound 98] | 12.7 |
| 0.028 | 0.0374 | 1.65 | – | – | C=CC(=O)Nc1cc(Nc2cc(-c3ccc4cnn(C)c4c3)ncn2)c(OC(F)F)cc1OCCN(C)C [compound 170] | 44.1 |
| – | 0.0236 | – | 0.0432 | 1.97 | C=CC(=O)Nc1cc(Nc2cc(-c3ccc4c(cnn4C)c3)ncn2)c(OC)cc1N1CCC(N2CCOCC2)CC1 [compound 152] | 83.3 |
| 0.0076 | 0.0048 | 0.597 | – | – | C=CC(=O)Nc1cc(Nc2cc(-c3ccc4c(cnn4C)c3)ncn2)c(OC)cc1N1CCC(N(CC)CC)CC1 [compound 137] | – |
| 0.0427 | 0.0586 | 2.07 | – | – | C=CC(=O)Nc1cc(Nc2nccc(-c3ccc4c(cnn4C)c3)n2)c(OC)cc1N(C)CCN(C)C(C)C [compound 257] | 35.3 |
| 0.033 | 0.047 | 1.84 | – | – | C=CC(=O)Nc1cc(Nc2cc(-c3cc4cnn(C)c4cc3F)ncn2)c(OC)cc1N1C[C@@H](C)N(C)[C@@H](C)C1 [compound 192] | 39.2 |

| SMILES | IC50 ([1]; Homo sapiens, PC-9, 72 h) [µM] | IC50 [2] [µM] | IC50 ([3]; Homo sapiens, A-431, 72 h) [µM] | IC50 [1] [µM] | IC50 [3] [µM] | A-431/NCI-H1975 Selectivity [2] |
| --- | --- | --- | --- | --- | --- | --- |
| C=CC(=O)Nc1cc(Nc2cc(-c3ccc4ncsc4c3)ncn2)c(OC)cc1N(C)C1CCN(C)CC1 [compound 81] | 0.0264 | 0.0287 | 1.38 | – | – | 48.1 |

Reference: patent US11352352B2, “Aminopyrimidine compound, preparation method therefor and use thereof” (BEIJING ADAMADLE BIOTECHNOLOGY LIMITED LIABILITY COMPANY, priority 2017, dated 2022)
